Details: excised skins, modified FRANZ diffusion cells, over a 36 hour period, from treated fabric
Procedure: The fabrics were then tested for topical delivery of the zinc salt using excised skins in modified FRANZ diffusion cells. The amount of zinc accumulating and penetrating the skin was determined over a 36 hour period.

## zinc sulfate monohydrate
  accumulation of zinc in skin: 1311 μg/g dry weight of skin
  penetration of zinc through skin: 3.2 μg/cm^2/hr
